# Experiments:
# Assay in all cases: AUC of viability dose-response curve (% viability x log10 dose units); higher = less sensitive
# Conditions in all cases: 48 h
# NOMO1 = test system: NOMO1
# In short: (§1)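 Over 48 h at 37°C, leukemia cells in 1536-well plates (500 or 1000 cells/well), adapted to each medium, received library compounds in DMSO at 11 threefold doses from 47 μM to 0.79 nM. CellTiter-Glo One luminescence, normalised per plate to DMSO and cell-free wells, was fitted by a four-parameter log-logistic function of log10 dose. The area under the curve was then integrated by trapezoidal rule, after scaling curves above full viability and removing those that failed quality control.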
# P12-Ichikawa = test system: P12-Ichikawa
# In short: as §1
# SEM cells = test system: SEM cells
# In short: as §1
# [1] = RPMI 5 mM glucose + 10% dialyzed FBS
SMILES,AUC of viability dose-response curve (NOMO1; HPLM + 10% dialyzed FBS),AUC of viability dose-response curve (NOMO1; RPMI 5 mM glucose + 10% FBS),AUC of viability dose-response curve (NOMO1; [1]),AUC of viability dose-response curve (P12-Ichikawa; HPLM + 10% dialyzed FBS),AUC of viability dose-response curve (P12-Ichikawa; RPMI 5 mM glucose + 10% FBS),AUC of viability dose-response curve (P12-Ichikawa; [1]),AUC of viability dose-response curve (SEM cells; HPLM + 10% dialyzed FBS),AUC of viability dose-response curve (SEM cells; RPMI 5 mM glucose + 10% FBS),AUC of viability dose-response curve (SEM cells; [1])
CCNc1cc(NC2CCC(O)CC2)nc(Nc2ccc3c(ccn3Cc3ccccc3)c2)n1 (configuration not stated),471,472,464,474,467,469,471,471,466
C#Cc1cccc(Nc2ncnc3cc(OC)c(OCCCCCCC(=O)NO)cc23)c1,276,313,300,253,254,244,264,216,254
O=C1NC(=O)/C(=C/c2cccc(C(F)(F)F)c2)S1,448,458,463,471,466,453,463,463,467
O=C(CCCCCCC(=O)Nc1ccccc1)NO,406,412,427,378,368,367,370,372,369
CN(C)c1ccc2cc(C(=O)N[C@@H](CCCNC(=N)CCl)C(=O)NCc3ccccc3)ccc2c1,443,447,451,451,446,449,450,434,444
COc1ccnc(C[S+]([O-])c2nc3cc(OC(F)F)ccc3[nH]2)c1OC (configuration not stated),459,464,474,474,456,461,435,431,461
CC(C)NCC(O)c1ccc(NS(C)(=O)=O)cc1 (configuration not stated),460,447,461,464,472,457,466,447,468
Cc1cc(O)c2c(c1)C(=O)c1cc(O)cc(O)c1C2=O,462,437,454,467,468,449,457,470,469
CN(C)c1ccc(Nc2nc(N)n(C(=O)c3c(F)cccc3F)n2)cc1,452,465,459,–,–,–,396,361,370
COc1cc2ncnc(Nc3cccc(Br)c3)c2cc1OC,475,447,460,451,462,464,447,460,448
C[S+]([O-])c1ccc(-c2nc(-c3ccc(F)cc3)c(-c3ccncc3)[nH]2)cc1 (configuration not stated),358,357,334,380,359,367,324,314,324
Cc1cc(Cl)ccc1OCCCC(=O)NO,438,428,444,400,380,336,411,418,403
Cc1ccc(-c2ncn(-c3ccc(Nc4nccc(-c5cccc(N6CCOCC6)c5)n4)cc3)n2)cn1,–,–,–,259,244,235,229,226,217
CC(C)(C)NC(=O)[C@H]1CC[C@H]2[C@@H]3CC[C@H]4NC(=O)\C=C/[C@]4(C)[C@H]3CC[C@]12C,382,365,383,421,421,450,449,457,459
Cc1cn(CCN2CCN(c3ccccc3-c3cc(C#N)cc(C(=O)NCCCN4CCCC4)c3)CC2)c2ccccc12,406,424,421,402,409,409,407,401,424
CC(NCc1ccc2c(c1)[nH]/c(=N\C(=O)c1ccc(-c3cn[nH]c3)s1)n2CC(C)(C)O)C(C)(C)C (configuration not stated),321,358,347,350,349,345,177,194,170
CN(C)CCCNC(=O)c1ccc(-c2cc(O)c3ncccc3c2)cc1,458,434,463,467,459,450,443,442,445
CCN(C)C(=O)Oc1cccc([C@H](C)N(C)C)c1,451,468,474,452,458,465,463,432,452
Cc1c(C(=O)Nc2cccc(C(F)(F)F)c2)cc(-c2ccccc2)n1CCCN1CCOCC1,458,446,460,438,449,454,454,458,446
CN(C)C[C@@H]1CC[N]2C=C(C3=C2C=CC=C3)C/4=C(/C(=O)NC4=O)C5=C[N](CCO1)C6=C5C=CC=C6,443,423,425,458,453,459,391,412,393
COC(=O)[C@@H](N)CCCNC(=N)N[N+](=O)[O-],467,427,461,452,462,452,426,444,432
CC[C@@]1(O)C[C@H](O[C@H]2C[C@H](N(C)C)[C@H](O[C@H]3C[C@H](O)[C@H](O[C@H]4CCC(=O)[C@H](C)O4)[C@H](C)O3)[C@H](C)O2)c2c(cc3c(c2O)C(=O)c2c(O)cccc2C3=O)[C@H]1C(=O)OC,426,430,410,463,417,425,217,225,200
CC1(C)CC(O)CC(C)(C)N1[O],452,472,472,464,459,459,–,–,–

SMILES,AUC of viability dose-response curve (NOMO1; HPLM + 10% dialyzed FBS),AUC of viability dose-response curve (NOMO1; RPMI 5 mM glucose + 10% FBS),AUC of viability dose-response curve (NOMO1; [1]),AUC of viability dose-response curve (P12-Ichikawa; HPLM + 10% dialyzed FBS),AUC of viability dose-response curve (P12-Ichikawa; RPMI 5 mM glucose + 10% FBS),AUC of viability dose-response curve (P12-Ichikawa; [1]),AUC of viability dose-response curve (SEM cells; HPLM + 10% dialyzed FBS),AUC of viability dose-response curve (SEM cells; RPMI 5 mM glucose + 10% FBS),AUC of viability dose-response curve (SEM cells; [1])
CCN(CC)CCN1C(=O)\C(=N/C2=CC=CC=C12)CC3=CC=C(OC)C=C3,472,474,468,470,465,460,–,–,–
NC\1=N\C(=O)N(\C=C1)[C@H]\2[C@H](O)[C@H](O)C(=C2F)\CO,369,378,369,361,394,389,376,421,353
CCCCCCCCCCCCCCCCCCOP(=O)([O-])OC1CC[N+](C)(C)CC1,469,470,467,470,462,465,455,468,442
CC(C)[C@H](CO)Nc1nc(Nc2cccc(Cl)c2)c2ncn(C(C)C)c2n1,304,342,351,385,404,387,316,255,284
O=C(NNC(=O)c1ccc(CN[S+](=O)([O-])c2ccc(F)c(Cl)c2)cc1)c1ccccc1,468,437,438,460,466,470,463,449,423
Oc1cc(O)cc(/C=C/c2ccc(O)c(O)c2)c1,442,416,431,449,452,444,413,430,390
CN[C@@H]1C[C@H]2O[C@@](C)([C@@H]1OC)n1c3ccccc3c3c4c(c5c6ccccc6n2c5c31)C(=O)N[C@H]4O,279,264,289,280,249,271,220,226,232
COc1ccc(Nc2cc(-c3cnc(N)nc3)nc(N3CCOCC3)n2)cn1,373,375,361,433,387,399,398,418,389
O=C1N\2CCC3=C([NH]C4=C3C=CC=C4)C2=N/C5=CC=CC=C15,465,461,466,465,457,454,461,456,451
O=C(CCc1ccc(O)cc1)c1c(O)cc(O)cc1O[C@@H]1O[C@H](CO)[C@@H](O)[C@H](O)[C@H]1O,–,–,–,428,405,408,454,426,412
O=C1CCc2ccc(OCCCCN3CCN(c4cccc(Cl)c4Cl)CC3)cc2N1,449,433,438,473,471,449,–,–,–
CCCCCCCCc1ccc(CCC(N)(CO)CO)cc1,353,433,401,432,407,429,441,452,454
CO[C@H]1C[C@@H]2CC[C@@H](C)[C@@](O)(O2)C(=O)C(=O)N2CCCC[C@H]2C(=O)O[C@H]([C@H](C)C[C@@H]2CC[C@@H](OCCO)[C@H](OC)C2)CC(=O)[C@H](C)/C=C(/C)[C@@H](O)[C@@H](OC)C(=O)[C@H](C)C[C@H](C)\C=C/C=C\C=C/1C,393,421,370,420,329,362,240,234,233
Nc1nc(OCc2ccccc2)c2nc[nH]c2n1,462,459,465,472,470,471,452,429,454
CC(=O)O[C@@]12CO[C@@H]1C[C@H](O)[C@]3(C)[C@@H]2[C@H](OC(=O)C4=CC=CC=C4)[C@]5(O)C[C@H](OC(=O)C(O)[C@@H](NC(=O)OC(C)(C)C)C6=CC=CC=C6)C(=C(/[C@@H](O)C3=O)C5(C)C)/C (some centres not stated),147,112,118,126,125,174,112,78.5,86.9
Cc1ccc(C(=O)c2cc(O)c(O)c([N+](=O)[O-])c2)cc1,447,424,456,468,449,434,435,466,434
COC1=CC2=C(C=C1OC)[C@H]3[C@@H](CO2)OC4=C(C=CC5=C4\C=C/C(C)(C)O5)C3=O,402,404,406,399,327,341,409,357,326
CO[C@@H]1C(N(C)C(=O)c2ccccc2)C[C@H]2O[C@]1(C)n1c3ccccc3c3c4c(c5c6ccccc6n2c5c31)C(=O)NC4=O (some centres not stated),–,–,–,401,372,369,324,289,327
COC[C@H]1OC(=O)C2=COC3=C2[C@@]1(C)\C4=C(\[C@@H]5CC[C@H](O)[C@@]5(C)C[C@H]4OC(C)=O)C3=O,440,466,458,–,–,–,–,–,–
OC(COC1=C2C(=O)\C=C(/OC2=CC=C1)C([O-])=O)COC3=C4C(=O)\C=C(/OC4=CC=C3)C([O-])=O,435,368,394,–,–,–,–,–,–
COc1cc(N[S+](=O)([O-])c2ccc(N)cc2)nc(OC)n1,431,476,458,462,470,466,–,–,–
CCCCN(CCCC)C(=O)CN1C[C@H](c2ccc3c(c2)OCO3)[C@@H](C(=O)O)[C@@H]1c1ccc(OC)cc1,457,470,464,–,–,–,408,427,432
N\C1=N\C2=C(N=C[N]2COC(CO)CO)C(=O)N1,445,449,448,–,–,–,444,387,449
